Laboratory results reported in ChEMBL document CHEMBL4402583, “Rational Substitution of ε-Lysine for α-Lysine Enhances the Cell and Membrane Selectivity of Pore-Forming Melittin” (J Med Chem, 2020).
≈ marks a conversion by molar mass, not a printed value. Calls of active or inactive are those of the source. The rule behind the calls is not given here.

How the values were obtained:
Enterococcus faecalis [1] = assay: Induction of pore formation in intact vancomycin-resistant Enterococcus faecalis 1002 cell membrane assessed as SG uptake at 2 times MIC by SG dye based fluorescence based assay; assay type: organism-based
Candida albicans = assay: Antifungal activity against Candida albicans assessed as reduction in fungal growth incubated for 24 hrs by broth microdilution method; assay type: functional
Acinetobacter baumannii [2] = assay: Antibacterial activity against Acinetobacter baumannii 1001 assessed as reduction in bacterial viability at 2 or 4 times MIC incubated up to 24 hrs in MHB medium followed by reincubation on MH agar plate for 24 to 48 hrs by time kill kinetics assay; assay type: functional, organism-based
Escherichia coli [3] = assay: Induction of pore formation in intact Escherichia coli 1004 cell membrane assessed as SG uptake at 2 times MIC by SG dye based fluorescence based assay; assay type: organism-based
Pseudomonas aeruginosa = assay: Antibacterial activity against Pseudomonas aeruginosa assessed as reduction in bacterial growth incubated for 24 hrs by broth microdilution method; assay type: functional
Oryctolagus cuniculus [4] = assay: Induction of reepithelialization in injured New Zealand white rabbit cornea assessed as wound healing administered topically for qid measured at day 5 post-injury by fluorescein sodium staining based microscopic imaging analysis (reference value: 39.8 +/- 6.2 %); assay type: organism-based; conditions: in vivo, topical_or_ocular
Enterococcus = assay: Antibacterial activity against vancomycin-resistant Enterococcus assessed as reduction in bacterial growth incubated for 24 hrs by broth microdilution method; assay type: functional
Staphylococcus aureus [5] = assay: Antibacterial activity against methicillin-resistance Staphylococcus aureus assessed as reduction in bacterial growth incubated for 24 hrs by broth microdilution method; assay type: functional
[6] = Stability of the compound in rabbit tear fluids assessed as parent compound remaining measured after 4 hrs by UPLC-MS analysis; assay type: ADME, Oryctolagus cuniculus; conditions: tear fluid, read-out: Stability
T-cell [7] = assay: Immunogenicity in human PBL T cells assessed as increase in IFN-gamma production at 62.5 or 125 ug/ml incubated for 24 hrs by ELISA; assay type: ADME, cell-based
T-cell [8] = assay: Immunogenicity in human PBL T cells assessed as increase in IL-4 production at 62.5 or 125 ug/ml incubated for 24 hrs by ELISA; assay type: ADME, cell-based
Oryctolagus cuniculus [9] = assay: Induction of reepithelialization in injured New Zealand white rabbit cornea assessed as wound healing administered topically for qid measured at day 3 post-injury by fluorescein sodium staining based microscopic imaging analysis (reference value: 63.9 +/- 5.3 %); assay type: organism-based; conditions: in vivo, topical_or_ocular
Oryctolagus cuniculus [10] = assay: Induction of reepithelialization in injured New Zealand white rabbit cornea assessed as wound healing administered topically for qid measured at day 4 post-injury by fluorescein sodium staining based microscopic imaging analysis (reference value: 48.4 +/- 7.6 %); assay type: organism-based; conditions: in vivo, topical_or_ocular
Oryctolagus cuniculus [11] = assay: Induction of reepithelialization in injured New Zealand white rabbit cornea assessed as wound healing at 0.3% administered topically for qid measured at day 1 post-injury by fluorescein sodium staining based microscopic imaging analysis (reference value: 89.9 +/- 2.9 %); assay type: organism-based; conditions: in vivo, topical_or_ocular
HaCaT = assay: Cytotoxicity against human HaCaT cells assessed as truncation and reduction in cytoskeleton at 500 ug/ml incubated for 24 hrs by Alexa Fluor […] phalloidin-FITC/Hoescht dye staining based fluorescence microscopic analysis; assay type: cell-based
Enterococcus faecalis [12] = assay: Induction of pore formation in intact vancomycin-resistant Enterococcus faecalis ATCC 29212 cell membrane assessed as SG uptake at 2 times MIC by SG dye based fluorescence based assay; assay type: organism-based
Escherichia coli [13] = assay: Antibacterial activity against Escherichia coli 1004 assessed as reduction in bacterial viability at 2 or 4 times MIC incubated up to 24 hrs in MHB medium followed by reincubation on MH agar plate for 24 to 48 hrs by time kill kinetics assay; assay type: functional, organism-based
NHDF = assay: Cytotoxicity against HDF cells assessed as truncation and reduction in cytoskeleton at 500 ug/ml incubated for 24 hrs by Alexa Fluor […] phalloidin-FITC/Hoescht dye staining based fluorescence microscopic analysis; assay type: cell-based; conditions: human
Enterococcus faecalis [14] = assay: Antibacterial activity against vancomycin-resistant Enterococcus faecalis 1002 assessed as log10 reduction in bacterial viability at 2 to 4 times MIC incubated for 30 mins in MHB medium followed by reincubation on MH agar plate for 24 to 48 hrs by time kill kinetics analysis; assay type: functional
Enterobacteriaceae = assay: Antibacterial activity against Carbapenem-Resistant Enterobacteriaceae assessed as reduction in bacterial growth incubated for 24 hrs by broth microdilution method; assay type: functional
Oryctolagus cuniculus [15] = assay: Induction of reepithelialization in injured New Zealand white rabbit cornea assessed as wound healing administered topically for qid measured at day 8 post-injury by fluorescein sodium staining based microscopic imaging analysis (reference value: 3.8 %); assay type: organism-based; conditions: in vivo, topical_or_ocular
[16] = Stability of the compound in rabbit tear fluid measured after 2 hrs by UPLC-MS analysis; assay type: ADME, Oryctolagus cuniculus
Oryctolagus cuniculus [17] = assay: Induction of reepithelialization in injured New Zealand white rabbit cornea assessed as wound healing administered topically for qid measured at day 6 post-injury by fluorescein sodium staining based microscopic imaging analysis (reference value: 24.1 +/- 8.5 %); assay type: organism-based; conditions: in vivo, topical_or_ocular
[18] = Hemolytic activity against human erythrocytes assessed as hemoglobin release incubated for 1 hr; assay type: ADME, cell-based, Erythrocyte; conditions: read-out: HD50
T-cell [19] = assay: Immunogenicity in human PBL T cells assessed as increase in IL-2 production at 62.5 or 125 ug/ml incubated for 24 hrs by ELISA; assay type: ADME, cell-based
Enterococcus faecalis [20] = assay: Antibacterial activity against vancomycin-resistant Enterococcus faecalis 1010 assessed as log10 reduction in bacterial viability at 2 to 4 times MIC incubated for 30 mins in MHB medium followed by reincubation on MH agar plate for 24 to 48 hrs by time kill kinetics analysis; assay type: functional
Acinetobacter baumannii [21] = assay: Antibacterial activity against Acinetobacter baumannii ATCC 19606 assessed as reduction in bacterial growth at sublethal concentrations measured after 20 serial passages by broth microdilution method; assay type: functional, organism-based; conditions: ATCC 19606 = CIP 70.34 = JCM 6841
Klebsiella pneumoniae = assay: Antibacterial activity against Klebsiella pneumoniae 1008 assessed as reduction in bacterial viability at 2 or 4 times MIC incubated up to 24 hrs in MHB medium followed by reincubation on MH agar plate for 24 to 48 hrs by time kill kinetics assay; assay type: functional, organism-based
Staphylococcus aureus [22] = assay: Antibacterial activity against methicillin-sensitive Staphylococcus aureus assessed as reduction in bacterial growth incubated for 24 hrs by broth microdilution method; assay type: functional
Acinetobacter baumannii [23] = assay: Induction of pore formation in intact Acinetobacter baumannii 1001 cell membrane assessed as SG uptake at 2 times MIC by SG dye based fluorescence based assay; assay type: organism-based
T-cell [24] = assay: Immunogenicity in human PBL T cells assessed as increase in IL-5 production at 62.5 or 125 ug/ml incubated for 24 hrs by ELISA; assay type: ADME, cell-based
Enterococcus faecalis [25] = assay: Antibacterial activity against vancomycin-resistant Enterococcus faecalis ATCC 29212 assessed as log10 reduction in bacterial viability at 2 to 4 times MIC incubated for 30 mins in MHB medium followed by reincubation on MH agar plate for 24 to 48 hrs by time kill kinetics analysis; assay type: functional
Enterococcus faecalis [26] = assay: Resistance index, ratio of MIC for vancomycin-resistant Enterococcus faecalis 1010 measured after 18 serial passages by broth microdilution method to MIC for vancomycin-resistant Enterococcus faecalis 1010 incubated for 24 hrs by broth microdilution method; assay type: functional
Oryctolagus cuniculus [27] = assay: Induction of reepithelialization in injured New Zealand white rabbit cornea assessed as wound healing administered topically for qid measured at day 7 post-injury by fluorescein sodium staining based microscopic imaging analysis (reference value: 8.6 %); assay type: organism-based; conditions: in vivo, topical_or_ocular
Acinetobacter baumannii [28] = assay: Antibacterial activity against multidrug-resistant Acinetobacter baumannii assessed as reduction in bacterial growth incubated for 24 hrs by broth microdilution method; assay type: functional
[29] = Cytotoxicity against HDF cells assessed as cell viability at 500 ug/ml incubated for 24 hrs by MTS assay relative to control; assay type: cell-based; conditions: human, HDF cells (NHDF, human dermal fibroblasts); read-out: Activity
Oryctolagus cuniculus [30] = assay: Induction of reepithelialization in injured New Zealand white rabbit cornea assessed as wound healing administered topically for qid measured at day 2 post-injury by fluorescein sodium staining based microscopic imaging analysis (reference value: 76.6 +/- 4.5 %); assay type: organism-based; conditions: in vivo, topical_or_ocular

## CC[C@H](C)[C@H](NC(=O)CN)C(=O)NCC(=O)N[C@@H](C)C(=O)N[C@H](C(=O)N[C@@H](CC(C)C)C(=O)NCCC[C@@H](CN)C(=O)N[C@H](C(=O)N[C@@H](CC(C)C)C(=O)N[C@H](C(=O)N[C@H](C(=O)NCC(=O)N[C@@H](CC(C)C)C(=O)N1CCC[C@H]1C(=O)N[C@@H](C)C(=O)N[C@@H](CC(C)C)C(=O)N[C@H](C(=O)N[C@@H](CO)C(=O)N[C@@H](Cc1c[nH]c2ccccc12)C(=O)N[C@H](C(=O)N[C@@H](CCCCN)C(=O)N[C@@H](CCCNC(=N)N)C(=O)NCCC[C@@H](CN)C(=O)N[C@@H](CCCNC(=N)N)C(=O)N[C@@H](CCC(N)=O)C(=O)N[C@@H](CCC(N)=O)C(N)=O)[C@@H](C)CC)[C@@H](C)CC)[C@@H](C)O)[C@@H](C)O)C(C)C)C(C)C
Enterococcus faecalis [1]
  Activity: Active
Candida albicans
  MIC: 16 to 32 µg/mL (≈ 5.62 to 11.2 µM)
  MIC50: 32 µg/mL (≈ 11.2 µM)
Acinetobacter baumannii [2]
  Activity: Active
Escherichia coli [3]
  Activity: Active
Pseudomonas aeruginosa
  MIC: 8 to 64 µg/mL (≈ 2.81 to 22.5 µM)
  MIC50: 32 µg/mL (≈ 11.2 µM)
Oryctolagus cuniculus [4]
  Activity: 42.9%
Enterococcus
  MIC: 4 to 16 µg/mL (≈ 1.41 to 5.62 µM)
  MIC50: 8 µg/mL (≈ 2.81 µM)
Staphylococcus aureus [5]
  MIC50: 32 µg/mL (≈ 11.2 µM)
[6]
  remaining at 4 h: 87.9%
T-cell [7]
  Activity: Non-Toxic
T-cell [8]
  Activity: Non-Toxic
Oryctolagus cuniculus [9]
  Activity: 63.6%
Oryctolagus cuniculus [10]
  Activity: 50.1%
Oryctolagus cuniculus [11]
  Activity: 90.9%
HaCaT
  Activity: Toxic
Enterococcus faecalis [12]
  Activity: Active
Escherichia coli [13]
  Activity: Active
NHDF
  Activity: Toxic
Enterococcus faecalis [14]
  log(activity): >5
Enterobacteriaceae
  MIC: 4 to 128 µg/mL (≈ 1.41 to 45 µM)
  MIC50: 16 µg/mL (≈ 5.62 µM)
Oryctolagus cuniculus [15]
  Activity: 5.2%
[16]
  Stability: Stable
Oryctolagus cuniculus [17]
  Activity: 30.2%
[18]
  HC50 at 1 h: 175 µg/mL
T-cell [19]
  Activity: Non-Toxic
Enterococcus faecalis [20]
  log(activity): >5
Acinetobacter baumannii [21]
  Activity: Active
Klebsiella pneumoniae
  Activity: Active
Staphylococcus aureus [22]
  MIC: 16 to 64 µg/mL (≈ 5.62 to 22.5 µM)
  MIC50: 32 µg/mL (≈ 11.2 µM)
Acinetobacter baumannii [23]
  Activity: Active
T-cell [24]
  Activity: Non-Toxic
Enterococcus faecalis [25]
  log(activity): >5
Enterococcus faecalis [26]
  Ratio: 16
Oryctolagus cuniculus [27]
  Activity: 12.6%
Acinetobacter baumannii [28]
  MIC: 4 to 8 µg/mL (≈ 1.41 to 2.81 µM)
  MIC50: 6 µg/mL (≈ 2.11 µM)
[29]
  viability at 24 h, 500 ug/ml: 90.7%
Oryctolagus cuniculus [30]
  Activity: 75.4%
